The values below come from patent US12421252B2, “Spiro (isobenzofuranazetidine) compounds for the treatment of autoimmune disease” (Hoffmann-La Roche Inc., priority 2020, dated 2025).

As usually defined, the IC50 is the point on the concentration scale where inhibition reaches its midpoint. Broadly, the IC20 is the point of the concentration-response curve where the effect stands at 20%. A high value points to a need for much substance.

In one series the target is T1, hERG channel (Homo sapiens, UniProt Q12809).
T1 construct: expressed in transfected cells
In words: hERG channel inhibition assay (patch-clamp, CHO hERG cells). Type of series: cell-based. As to conditions: for IC50 / IC20: CHO hERG cells, whole-cell patch-clamp; for IC20: human, CHO cells stably expressing hERG; for hERG IC20/TLR7 IC50 / hERG IC20/TLR8 IC50 / hERG IC20/TLR9 IC50: safety ratio. How it is done:
hERG Channel Inhibition Assay:
The hERG K+ channels were cloned in humans and stably expressed in a CHO (Chinese hamster ovary) cell line. CHOhERG cells were used for patch-clamp (voltage-clamp, whole-cell) experiments. Cells were stimulated by a voltage pattern to activate hERG channels and conduct IKhERG Currents (rapid delayed outward rectifier potassium current of the hERG channel). After the cells were stabilized for a few minutes, the amplitude and kinetics of IKhERG were recorded at a stimulation frequency of 0.1 Hz, (6 bpm). Thereafter, the test compound was added to the preparation at increasing concentrations. For each concentration, an attempt was made to reach a steady-state effect, usually, this was achieved within 3-10 min at which time the next highest concentration was applied. The amplitude and kinetics of IKhERG are recorded in each concentration of the drug which were compared to the control values (taken as 100%). (references: Redfern W S, Carlsson L, Davis A S, Lynch W G, MacKenzie I, Palethorpe S, Siegl P K, Strang I, Sullivan A T, Wallis R, Camm A J, Hammond T G. 2003; Relationships between preclinical cardiac electrophysiology, clinical QT interval prolongation and torsade de pointes for a broad range of drugs: evidence for a provisional safety margin in drug development. Cardiovasc. Res. 58:32-45, Sanguinetti M C, Tristani-Firouzi M. 2006; hERG potassium channels and cardiac arrhythmia. Nature 440:463-469, Webster R, Leishman D, Walker D. 2002; Towards a drug concentration effect relationship for QT prolongation and torsades de pointes. Curr. Opin. Drug Discov. Devel. 5:116-26).
In general terms: hERG is a cardiac potassium channel; its block is linked to QT prolongation.

A further series concerns the target T2, CYP2C9 (Homo sapiens, UniProt P11712).
T2 construct: tissue BD-Gentest 452117; host or cells: human liver microsomes
In words: CYP inhibition assay in human liver microsome, CYP2C9. Type of series: in vitro ADME. As to conditions: percentage inhibition, substrate Diclofenac 5 μM, <0: not or weak inhibitor. The protocol: This is a high throughput screening assay used for assessment of reversible inhibition of CYP2C9, CYP2D6, and CYP3A4 activity of test compounds in human liver microsome (HLM) in early discovery stage.
Procedure 10 mM DMSO stock solutions of test compounds were diluted in DMSO to generate 2 mM intermediate stock solution. 250 nL of intermediate stock solution were transferred in duplicate into 3 separate 384 well microtitre plates (assay-ready plates). A mixture of HLM and each substrate was made up. 45 μL of HLM substrate mix was then transferred to each well of an assay ready plate and mixed. The negative (solvent) and positive controls (standard inhibitor for each CYP) were included in each assay ready plate. The assay ready plate was warmed to 37° C. in an incubator over 10 minutes. 5 μL pre-warmed NADPH regenerating system was added to each incubation well to start the reaction. Final incubation volume was 50 μL. The assay plate then was placed back in the 37° C. incubator. After incubation (10 minutes for CYP2D6) for 5 minutes, incubates were quenched by addition of 50 μL 100% acetonitrile containing internal standards (400 ng/mL 13C6-4′-OH-Diclofenac, 20 ng/mL D3-Dextrorphan and 20 ng/mL D4-1′OH-Midazolam). The supernatants were collected for RapidFire/MS/MS analysis.
RapidFire online solid phase extraction/sample injection system (Agilent) coupled with API4000 triple quadrupole mass spectrometer (AB Sciex) were used for sample analysis. The mobile phase composed of acetonitrile and water supplemented with 0.1% formic acid. A C4 solid phase extraction cartridge is used for sample separation. MS detection is achieved in positive ion MRM mode.
Data analysis Peak areas for substrate, metabolite and internal standard are determined using the RapidFire integrator software (version 3.6.12009.12296). Peak area ratios (PAR) of metabolite and internal standard (stable-labelled metabolite) are then calculated. The measurement window for each experiment is then defined: PAR (0% activity)=average PAR for all incubations containing concentrated inhibitor; Par (100% activity)=average PAR for all incubations containing no inhibitor (DMSO controls); % Activity (test inhibitor)=[PAR (test inhibitor)-PAR (0% activity)]/[PAR (100% activity)-PAR (0% activity)]; % Inhibition (test inhibitor)=100-% Activity (test inhibitor).
Background: Liver microsomes are a subcellular fraction often used to study metabolism.

T1 sequence (Q12809 whole entry): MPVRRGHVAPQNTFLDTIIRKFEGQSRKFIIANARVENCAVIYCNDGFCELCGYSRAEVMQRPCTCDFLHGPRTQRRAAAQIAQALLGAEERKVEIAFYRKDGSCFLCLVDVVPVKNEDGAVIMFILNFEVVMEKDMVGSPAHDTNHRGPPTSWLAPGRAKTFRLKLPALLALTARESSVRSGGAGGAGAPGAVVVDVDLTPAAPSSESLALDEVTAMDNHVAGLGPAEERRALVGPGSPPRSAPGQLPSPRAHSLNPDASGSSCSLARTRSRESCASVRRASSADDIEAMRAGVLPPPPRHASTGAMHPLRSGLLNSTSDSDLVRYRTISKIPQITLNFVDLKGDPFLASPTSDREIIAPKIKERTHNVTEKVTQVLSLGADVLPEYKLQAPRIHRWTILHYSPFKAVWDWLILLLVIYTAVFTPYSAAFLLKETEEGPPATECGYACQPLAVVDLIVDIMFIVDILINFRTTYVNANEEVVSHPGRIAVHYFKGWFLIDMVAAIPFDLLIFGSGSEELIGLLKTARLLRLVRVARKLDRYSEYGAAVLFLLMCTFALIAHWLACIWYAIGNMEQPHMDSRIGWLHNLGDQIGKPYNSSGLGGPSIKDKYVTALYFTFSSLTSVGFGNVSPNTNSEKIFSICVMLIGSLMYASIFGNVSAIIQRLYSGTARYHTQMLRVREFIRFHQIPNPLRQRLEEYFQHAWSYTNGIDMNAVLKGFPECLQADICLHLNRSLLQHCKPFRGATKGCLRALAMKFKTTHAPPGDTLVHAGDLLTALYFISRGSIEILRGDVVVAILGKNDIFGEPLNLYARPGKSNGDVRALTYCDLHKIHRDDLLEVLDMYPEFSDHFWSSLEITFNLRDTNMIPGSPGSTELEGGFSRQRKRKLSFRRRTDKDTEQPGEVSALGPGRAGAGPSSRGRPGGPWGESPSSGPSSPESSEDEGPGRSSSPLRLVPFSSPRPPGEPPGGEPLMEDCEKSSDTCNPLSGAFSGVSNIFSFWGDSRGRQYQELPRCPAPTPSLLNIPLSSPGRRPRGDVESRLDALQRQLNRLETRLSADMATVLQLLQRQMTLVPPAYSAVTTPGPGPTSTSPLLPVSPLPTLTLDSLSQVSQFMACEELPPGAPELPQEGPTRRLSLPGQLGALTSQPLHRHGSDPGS
T2 sequence (P11712 whole entry): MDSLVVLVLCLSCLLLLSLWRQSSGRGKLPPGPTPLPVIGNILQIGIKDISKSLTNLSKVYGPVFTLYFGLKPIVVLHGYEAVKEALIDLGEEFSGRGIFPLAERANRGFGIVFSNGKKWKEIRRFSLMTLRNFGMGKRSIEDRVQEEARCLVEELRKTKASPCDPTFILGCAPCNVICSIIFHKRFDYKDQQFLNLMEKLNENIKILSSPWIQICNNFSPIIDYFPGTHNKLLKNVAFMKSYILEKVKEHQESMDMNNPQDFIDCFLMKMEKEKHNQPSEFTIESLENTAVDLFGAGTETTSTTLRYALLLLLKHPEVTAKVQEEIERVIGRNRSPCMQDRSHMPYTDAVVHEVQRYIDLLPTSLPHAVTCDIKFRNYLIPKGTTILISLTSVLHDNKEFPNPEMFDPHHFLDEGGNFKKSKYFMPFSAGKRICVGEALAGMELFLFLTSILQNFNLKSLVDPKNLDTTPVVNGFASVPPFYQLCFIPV

For `C[C@@H]1CN(c2ccc(C#N)n3ncc(F)c23)C[C@H](CN2CC3(C2)OCc2cc(N4CC5(CN(C)C5)C4)ccc23)O1` [Example 2, 3-fluoro-4-[(2R,6S)-2-methyl-6-[[6-(6-methyl-2,6-diazaspiro[3.3]heptan-2-yl)spiro[1H-isobenzofuran-3,3′-azetidine]-1′-yl]methyl]morpholin-4-yl]pyrazolo[1,5-a]pyridine-7-carbonitrile], on hERG channel, the IC50 is greater than 20 µM, the IC20 is 9.9 µM, the “hERG IC20/TLR7 IC50” value is 990 and the “hERG IC20/TLR8 IC50” value turned out to be 396. Moreover, at hERG channel, the “hERG IC20/TLR9 IC50” value was determined as 220.

Take `C[C@@H]1CN(c2ccc(C#N)n3nccc23)C[C@H](CN2CC3(C2)OCc2cc(N4CC5(CNCCO5)C4)ccc23)O1` [Example 7, 4-[(2R,6S)-2-methyl-6-[[6-(5-oxa-2,8-diazaspiro[3.5]nonan-2-yl)spiro[1H-isobenzofuran-3,3′-azetidine]-1′-yl]methyl]morpholin-4-yl]pyrazolo[1,5-a]pyridine-7-carbonitrile]: on CYP2C9, the “CYP (%) 2C9” value turned out to be 0%.

As for `[2H]c1ccc2c(N3C[C@H](CN4CC5(C4)OCc4cc(N6C[C@H]7NCCO[C@@H]7C6)ccc45)O[C@H](C)C3)ccc(C#N)c2n1` [Example 17, 5-[(2S,6R)-2-[[6-[(4aR,7aR)-3,4,4a,5,7,7a-hexahydro-2H-pyrrolo[3,4-b][1,4]oxazin-6-yl]spiro[1H-isobenzofuran-3,3′-azetidine]-1′-yl]methyl]-6-methyl-morpholin-4-yl]-2-deuterio-quinoline-8-carbonitrile], at CYP2C9, the “CYP (%) 2C9” value was found to be 3.5%.

On to `[2H]c1ccc2c(N3C[C@H](CN4CC5(C4)OCc4cc(N6CC(N)C6)cnc45)O[C@H](C)C3)ccc(C#N)c2n1` [Example 20, 5-[(2S,6R)-2-[[3-(3-aminoazetidin-1-yl)spiro[5H-furo[3,4-b]pyridine-7,3′-azetidine]-1′-yl]methyl]-6-methyl-morpholin-4-yl]-2-deuterio-quinoline-8-carbonitrile], for which, at CYP2C9, the “CYP (%) 2C9” value worked out at 13.5%.

In the case of `[2H]c1ccc2c(N3C[C@H](CN4CC5(C4)OCc4cc(N6CC(C)(N)C6)cnc45)O[C@H](C)C3)ccc(C#N)c2n1` [Example 21, 5-[(2S,6R)-2-[[3-(3-amino-3-methyl-azetidin-1-yl)spiro[5H-furo[3,4-b]pyridine-7,3′-azetidine]-1′-yl]methyl]-6-methyl-morpholin-4-yl]-2-deuterio-quinoline-8-carbonitrile], at hERG channel, the IC50 is greater than 20 µM, the IC20 is greater than 10 µM, the “hERG IC20/TLR7 IC50” value was greater than 1428 and the “hERG IC20/TLR8 IC50” value is greater than 588. Moreover, the “hERG IC20/TLR9 IC50” value at hERG channel was greater than 181. Besides, the “CYP (%) 2C9” value at CYP2C9 was 4.5%.

Consider `C[C@@H]1CN(c2ccc(C#N)n3ncc(F)c23)C[C@H](CN2CC3(C2)OCc2cc(N4CC(C)(N)C4)ncc23)O1` [Example 24, 4-[(2S,6R)-2-[[6-(3-amino-3-methyl-azetidin-1-yl)spiro[1H-furo[3,4-c]pyridine-3,3′-azetidine]-1′-yl]methyl]-6-methyl-morpholin-4-yl]-3-fluoro-pyrazolo[1,5-a]pyridine-7-carbonitrile], for which the “CYP (%) 2C9” value on CYP2C9 stood at 21%.
